In US20070117770A1, “Human ribosomal DNA (rDNA) and ribosomal RNA (rRNA) nucleic acids and uses thereof” (Cylene Pharmaceuticals, Inc., priority 2005, published 2007):

Experiments:
Assay in all cases: Protein kinase inhibition assay
Type in all cases: biochemical
[1] = biological target: GSK3α(h) (Homo sapiens, UniProt P49840); details: read-out: percent residual activity of GSK3α(h)
Description: (§1) Certain compounds were tested for activity in protein kinase inhibition assays. All substrates were dissolved and diluted to working stocks in de-ionized water, apart from histone H1 (10× working stock in 20 mM MOPS pH 7.0), PDKtide (10× working stock in 50 mM Tris pH 7.0) ATF2 (which is typically stored at a 20× working stock in 50 mM Tris pH 7.5, 150 mM NaCl, 0.1 mM EGTA, 0.03% Brij-35, 50% glycerol, 1 mM benzamidine, 0.2 mM PMSF and 0.1% R-mercaptoethanol), KKLNRTLSFAEPG (SEQ ID NO:203) and RRRLSFAEPG (SEQ ID NO:204) (50 mM HEPES pH 7.4) and GGEEEEYFELVKKKK (SEQ ID NO:205) (20 mM MOPS pH 7.0). All kinases were pre-diluted to a 10× working concentration prior to addition into the assay. The composition of the dilution buffer for each kinase is detailed below.
In a final reaction volume of 25 μl, GSK3α (h) (5-10 mU) is incubated with 8 mM MOPS pH 7.0, 0.2 mM EDTA, 20 μM […](p)EDEEE (SEQ ID NO:216) (phospho GS2 peptide), 10 mM MgAcetate and [gamma-33P-ATP] (specific activity approx. 500 cpm/pmol, concentration as required). The reaction is initiated by the addition of the MgATP mix. After incubation for 40 minutes at room temperature, the reaction is stopped by the addition of 5 μl of a 3% phosphoric acid solution. […]

[2] = biological target: MKK6(h) (Homo sapiens, UniProt P52564); details: read-out: percent residual activity of MKK6(h)
MKK6(h), sequence (P52564 whole entry): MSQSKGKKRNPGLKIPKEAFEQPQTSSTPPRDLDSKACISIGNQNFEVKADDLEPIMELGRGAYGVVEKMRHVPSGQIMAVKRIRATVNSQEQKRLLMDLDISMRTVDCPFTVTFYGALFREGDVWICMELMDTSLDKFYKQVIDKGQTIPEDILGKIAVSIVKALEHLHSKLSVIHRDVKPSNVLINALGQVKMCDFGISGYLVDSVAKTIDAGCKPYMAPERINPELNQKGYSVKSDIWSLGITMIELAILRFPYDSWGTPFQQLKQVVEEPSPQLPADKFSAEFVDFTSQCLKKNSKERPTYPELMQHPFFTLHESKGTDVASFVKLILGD
Description: as §1
The reaction is initiated by the addition of the MgATP. After incubation for 40 minutes at room temperature, 5 μl of this incubation mix is used to initiate a SAPK2a (h) assay, which is described on page 18 of this book.

[3] = biological target: Ret(h) (Homo sapiens, UniProt P07949); details: read-out: percent residual activity of Ret(h)
Ret(h), sequence (P07949 29-1114): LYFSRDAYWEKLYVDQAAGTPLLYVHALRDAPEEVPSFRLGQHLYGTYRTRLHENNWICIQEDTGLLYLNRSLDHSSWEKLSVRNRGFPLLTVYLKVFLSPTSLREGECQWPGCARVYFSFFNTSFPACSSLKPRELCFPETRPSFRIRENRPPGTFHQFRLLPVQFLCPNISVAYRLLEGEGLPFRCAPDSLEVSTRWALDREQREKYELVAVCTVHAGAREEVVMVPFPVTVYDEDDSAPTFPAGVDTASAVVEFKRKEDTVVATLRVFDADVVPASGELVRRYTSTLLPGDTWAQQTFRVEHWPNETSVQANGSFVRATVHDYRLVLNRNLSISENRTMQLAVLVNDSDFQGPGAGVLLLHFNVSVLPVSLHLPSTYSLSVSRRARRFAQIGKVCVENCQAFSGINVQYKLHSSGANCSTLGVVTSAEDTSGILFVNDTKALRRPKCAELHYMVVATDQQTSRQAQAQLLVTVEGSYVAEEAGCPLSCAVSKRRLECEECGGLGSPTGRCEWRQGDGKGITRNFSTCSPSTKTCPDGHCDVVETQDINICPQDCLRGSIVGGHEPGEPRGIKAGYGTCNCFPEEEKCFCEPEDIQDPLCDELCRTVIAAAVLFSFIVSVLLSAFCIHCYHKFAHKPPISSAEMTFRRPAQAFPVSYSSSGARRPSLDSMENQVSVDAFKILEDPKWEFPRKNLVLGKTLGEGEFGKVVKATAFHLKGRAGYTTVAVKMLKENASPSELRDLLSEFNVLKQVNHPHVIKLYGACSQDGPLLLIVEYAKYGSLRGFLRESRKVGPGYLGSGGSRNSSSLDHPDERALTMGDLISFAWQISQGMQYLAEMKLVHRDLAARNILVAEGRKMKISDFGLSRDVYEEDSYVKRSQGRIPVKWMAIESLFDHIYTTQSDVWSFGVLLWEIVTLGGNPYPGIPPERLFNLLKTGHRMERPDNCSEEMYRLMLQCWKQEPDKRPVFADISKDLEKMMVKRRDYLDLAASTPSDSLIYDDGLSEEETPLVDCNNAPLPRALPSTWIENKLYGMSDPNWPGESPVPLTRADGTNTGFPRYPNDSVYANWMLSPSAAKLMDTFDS
Description: as §1
(§2) In a final reaction volume of 25 μl, Ret (h) (5-10 mU) is incubated with 8 mM MOPS pH 7.0, 0.2 mM EDTA, 250 μM KKKSPGEYVNIEFG (SEQ ID NO:207), 10 mM MgAcetate and [gamma-33P-ATP] (specific activity approx. 500 cpm/pmol, concentration as required). The reaction is initiated by the addition of the MgATP mix. After incubation for 40 minutes at room temperature, the reaction is stopped by the addition of 5 μl of a 3% phosphoric acid solution. 10 μl of the reaction is then spotted onto a P30 filtermat and washed three times for 5 minutes in 75 mM phosphoric acid and once in methanol prior to drying and scintillation counting.

[4] = biological target: PKBγ(h) (Homo sapiens, UniProt Q9Y243); details: read-out: percent residual activity of PKBγ(h)
PKBγ(h), sequence (Q9Y243 whole entry): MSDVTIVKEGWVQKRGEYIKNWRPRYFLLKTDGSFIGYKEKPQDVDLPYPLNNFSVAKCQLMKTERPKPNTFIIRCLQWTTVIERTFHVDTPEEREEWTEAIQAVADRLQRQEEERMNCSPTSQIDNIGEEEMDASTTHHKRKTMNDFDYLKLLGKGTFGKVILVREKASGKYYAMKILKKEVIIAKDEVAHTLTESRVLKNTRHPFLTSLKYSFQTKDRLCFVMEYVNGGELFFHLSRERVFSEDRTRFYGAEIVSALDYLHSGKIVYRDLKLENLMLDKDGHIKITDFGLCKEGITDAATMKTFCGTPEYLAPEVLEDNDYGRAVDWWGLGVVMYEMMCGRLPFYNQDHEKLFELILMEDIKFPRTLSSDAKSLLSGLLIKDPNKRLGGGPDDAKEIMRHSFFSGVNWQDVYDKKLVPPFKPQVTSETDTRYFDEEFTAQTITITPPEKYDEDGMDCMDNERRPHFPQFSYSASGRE
Description: as §1
as §2, with “PKBγ” for “Ret”, “30” for “250”, “GRPRTSSFAEGKK” for “KKKSPGEYVNIEFG”, “NO:232),” for “NO:207),”

[5] = biological target: Tie2(h) (Homo sapiens, UniProt Q02763); details: for remaining activity at 2.5 µM: read-out: percent residual activity of Tie2(h)
Tie2(h), sequence (Q02763 23-1124): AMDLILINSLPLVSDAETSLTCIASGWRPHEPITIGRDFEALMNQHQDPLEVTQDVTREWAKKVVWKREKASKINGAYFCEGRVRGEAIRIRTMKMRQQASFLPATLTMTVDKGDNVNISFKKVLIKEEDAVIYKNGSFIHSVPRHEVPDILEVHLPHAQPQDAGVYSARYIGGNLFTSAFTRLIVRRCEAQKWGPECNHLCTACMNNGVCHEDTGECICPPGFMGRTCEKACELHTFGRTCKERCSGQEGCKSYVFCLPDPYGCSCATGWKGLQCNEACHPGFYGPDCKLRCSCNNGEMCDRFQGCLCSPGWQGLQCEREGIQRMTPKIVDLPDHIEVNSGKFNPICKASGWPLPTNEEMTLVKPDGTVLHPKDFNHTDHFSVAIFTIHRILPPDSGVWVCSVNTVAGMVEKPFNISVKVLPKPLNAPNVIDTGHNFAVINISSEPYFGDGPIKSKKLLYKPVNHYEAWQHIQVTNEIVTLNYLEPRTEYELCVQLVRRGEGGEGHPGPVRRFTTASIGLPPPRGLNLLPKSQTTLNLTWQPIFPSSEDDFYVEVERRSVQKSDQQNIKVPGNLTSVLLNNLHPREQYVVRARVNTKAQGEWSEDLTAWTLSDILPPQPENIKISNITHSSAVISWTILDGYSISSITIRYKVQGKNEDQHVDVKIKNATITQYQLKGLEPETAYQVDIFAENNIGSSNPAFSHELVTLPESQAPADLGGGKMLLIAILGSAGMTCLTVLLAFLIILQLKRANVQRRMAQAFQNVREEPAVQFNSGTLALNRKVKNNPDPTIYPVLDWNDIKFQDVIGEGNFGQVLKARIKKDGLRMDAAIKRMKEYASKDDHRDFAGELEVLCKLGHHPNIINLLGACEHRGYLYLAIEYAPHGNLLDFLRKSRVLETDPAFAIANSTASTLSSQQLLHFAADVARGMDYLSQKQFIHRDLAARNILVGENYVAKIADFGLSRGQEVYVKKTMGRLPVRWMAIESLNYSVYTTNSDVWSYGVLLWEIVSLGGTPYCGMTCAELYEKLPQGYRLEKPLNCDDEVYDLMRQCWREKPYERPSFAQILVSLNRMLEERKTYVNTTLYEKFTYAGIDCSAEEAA
Description: as §1
as §2, with “Tie2” for “Ret”, “0.5 mM MnCl2, 0.1 mg/ml poly(Glu, Tyr) 4:1,” for “250 μM KKKSPGEYVNIEFG (SEQ ID NO:207),”, “Filtermat A” for “P30 filtermat”

[6] = biological target: FGFR2(h) (Homo sapiens, UniProt P21802); details: read-out: percent residual activity of FGFR2(h)
FGFR2(h), sequence (P21802 22-821): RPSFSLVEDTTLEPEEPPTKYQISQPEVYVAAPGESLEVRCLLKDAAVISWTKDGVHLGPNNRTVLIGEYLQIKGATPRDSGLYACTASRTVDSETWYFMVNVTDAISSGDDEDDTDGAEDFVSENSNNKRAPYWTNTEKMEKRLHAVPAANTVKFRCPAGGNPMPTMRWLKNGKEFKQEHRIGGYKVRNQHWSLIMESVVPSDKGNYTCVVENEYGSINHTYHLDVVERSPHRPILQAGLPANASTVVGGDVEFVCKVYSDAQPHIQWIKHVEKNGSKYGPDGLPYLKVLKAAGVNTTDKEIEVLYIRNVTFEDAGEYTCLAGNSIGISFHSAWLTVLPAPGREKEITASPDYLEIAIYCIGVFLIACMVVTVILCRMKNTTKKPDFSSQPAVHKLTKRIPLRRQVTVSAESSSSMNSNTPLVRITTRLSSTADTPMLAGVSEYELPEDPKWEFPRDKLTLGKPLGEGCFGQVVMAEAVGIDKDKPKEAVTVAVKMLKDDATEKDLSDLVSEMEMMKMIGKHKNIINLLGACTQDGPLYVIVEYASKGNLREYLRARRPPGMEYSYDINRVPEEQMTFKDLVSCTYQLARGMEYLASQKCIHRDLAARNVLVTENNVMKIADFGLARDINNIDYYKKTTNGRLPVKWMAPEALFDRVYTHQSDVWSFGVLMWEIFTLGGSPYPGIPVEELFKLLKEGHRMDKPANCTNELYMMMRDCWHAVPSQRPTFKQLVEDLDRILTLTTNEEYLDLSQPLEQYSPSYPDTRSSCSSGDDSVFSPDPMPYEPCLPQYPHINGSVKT
Description: as §1
as §2, with “FGFR2” for “Ret”, “2.5 mM MnCl2, 0.1 mg/ml poly(Glu, Tyr) 4:1,” for “250 μM KKKSPGEYVNIEFG (SEQ ID NO:207),”, “Filtermat A” for “P30 filtermat”

[7] = biological target: MAPKAP-K2(h) (Homo sapiens, UniProt P49137); details: read-out: percent residual activity of MAPKAP-K2(h)
MAPKAP-K2(h), sequence (P49137 whole entry): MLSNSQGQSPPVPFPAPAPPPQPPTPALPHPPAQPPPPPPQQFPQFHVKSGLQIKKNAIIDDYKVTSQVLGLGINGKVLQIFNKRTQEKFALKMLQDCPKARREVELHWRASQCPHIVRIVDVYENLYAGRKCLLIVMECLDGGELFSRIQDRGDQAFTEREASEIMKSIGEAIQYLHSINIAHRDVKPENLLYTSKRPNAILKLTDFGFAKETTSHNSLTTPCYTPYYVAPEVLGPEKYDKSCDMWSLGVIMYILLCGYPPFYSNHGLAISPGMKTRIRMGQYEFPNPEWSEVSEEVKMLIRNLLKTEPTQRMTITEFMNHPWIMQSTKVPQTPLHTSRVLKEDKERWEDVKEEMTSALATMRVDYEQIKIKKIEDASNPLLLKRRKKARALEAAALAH
Description: as §1
In a final reaction volume of 25 μl, MAPKAP-K2 (h) (5-10 mU) is incubated with 50 mM Na R-glycerophosphate pH 7.5, 0.1 mM EGTA, 30 μM KKLNRTLSVA (SEQ ID NO:212), 10 mM MgAcetate and [gamma-33P-ATP] (specific activity approx. 500 cpm/pmol, concentration as required). The reaction is initiated by the addition of the MgATP mix. After incubation for 40 minutes at room temperature, the reaction is stopped by the addition of 5 μl of a 3% phosphoric acid solution. […]

GSK3α(h), sequence (P49840 whole entry): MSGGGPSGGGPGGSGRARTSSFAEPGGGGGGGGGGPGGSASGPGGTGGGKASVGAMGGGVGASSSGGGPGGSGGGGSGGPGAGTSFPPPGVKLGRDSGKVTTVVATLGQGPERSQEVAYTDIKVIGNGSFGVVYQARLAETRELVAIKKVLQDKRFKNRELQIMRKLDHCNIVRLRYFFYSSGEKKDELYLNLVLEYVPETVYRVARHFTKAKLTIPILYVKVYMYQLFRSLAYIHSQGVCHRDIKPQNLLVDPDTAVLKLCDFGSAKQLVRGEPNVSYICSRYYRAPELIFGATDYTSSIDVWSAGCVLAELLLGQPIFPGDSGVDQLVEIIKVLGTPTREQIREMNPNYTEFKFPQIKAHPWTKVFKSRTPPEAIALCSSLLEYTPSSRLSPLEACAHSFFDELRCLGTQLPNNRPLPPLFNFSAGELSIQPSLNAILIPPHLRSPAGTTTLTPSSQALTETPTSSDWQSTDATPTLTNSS

Row | remaining activity at 2.5 µM [1] | remaining activity at 2.5 µM [2] | remaining activity at 2.5 µM [3] | remaining activity at 2.5 µM [4] | inhibition at 2.5 µM [5] | remaining activity at 2.5 µM [5] | remaining activity at 2.5 µM [6] | remaining activity at 2.5 µM [7] | SMILES
1 | 101% | 100% | 123% | 64% | > 80% | 13% | 76% | 79% | CN1CCCC1CCNC(=O)c1cn2c3c(c(N4CCC(c5cnccn5)C4)c(F)cc3c1=O)Oc1cc3ccccc3cc1-2 (stereo not drawn) [Compound A-1]
2 | 89% | 90% | 92% | 95% | – | 115% | 89% | 99% | CC(=O)N1CCN(c2ccc3c(=O)c(C(=O)NCCN4CCCC4)c4n(C)c5ccccc5n4c3n2)CC1 [Compound B-1]
